Values quoted from earlier work as cited in patent US20250231185A1, “Coronavirus T Cell Epitopes, Megapools and Uses Thereof” (La Jolla Institute for Immunology, priority 2021, published 2025).
Like-named read-outs stand apart in the source and are kept apart here.

Tested on: CD8+ T cells
Conditions: cited from earlier work
[1] = CD8R (D) megapool epitopes, dominant = recognized by 3 or more donors/different studies
[2] = T cell subset (CD4 or CD8) recognizing the SARS-CoV-2-derived epitope
[3] = SARS-CoV-2 Ag S, T cell type recognizing the epitope
[4] = SARS-CoV-2-derived CD8 epitopes, dominant = recognized by 3 or more donors/different studies
[5] = CD8RE megapool peptides (non-spike SARS-CoV-2 antigens), dominant epitope Yes/No
[6] = T cell type (CD4 or CD8) recognizing the SARS-CoV-2 epitope

## ORF1ab 3183-3191: SARS-CoV-2 ORF1ab 3183-3191 CD8 epitope among 14 peptides screened in the Habel et al. study (FLLNKEMYL; CD8 epitope peptide; UniProt P0DTD1 3183-3191, looked up, fragment) [reference compound]
Habel et al., 14 peptides screened, HLA-A*02:01
  IFN-f response: less prominently recognized

## 1743 (AIMTRCLAV) [compound 1743]
[1]
  Dominant: Yes (more dominant epitopes are defined by being recognized by 3 or more donors/different studies)

## 522 (KSAAEASKK) [compound 522]
[2]
  Restriction: CD8

## 1680 (RYRIGNYKL) [compound 1680]
[1]
  Dominant: Yes (more dominant epitopes are defined by being recognized by 3 or more donors/different studies)

## 625 (LTAVVIPTK) [compound 625]
[2]
  Restriction: CD8

## 689 (EIDPKLDNY) [compound 689]
[2]
  Restriction: CD8

## 1377 (ILPDPSKPSK) [compound 1377]
[3]
  Restriction: CD8

## 1320 (QPYRVVVLSF) [compound 1320]
[3]
  Restriction: CD8

## 1697 (QQQQGQTVTK) [compound 1697]
[1]
  Dominant: Yes (more dominant epitopes are defined by being recognized by 3 or more donors/different studies)

## 542 (MEVTPSGTWL) [compound 542]
[4]
  Dominant: Yes (more dominant epitopes are defined by being recognized by 3 or more donors/different studies)
[2]
  Restriction: CD8

## 2912 (AVILRGHLR) [compound 2912]
[5]
  Dominant: Yes (more dominant epitopes are defined by being recognized by 3 or more donors/different studies)

## 1812 (RARSVSPKL) [compound 1812]
[1]
  Dominant: Yes (more dominant epitopes are defined by being recognized by 3 or more donors/different studies)

## 3023 (SMWALIISV) [compound 3023]
[5]
  Dominant: Yes (more dominant epitopes are defined by being recognized by 3 or more donors/different studies)

## 1760 (VTNNTFTLK) [compound 1760]
[1]
  Dominant: Yes (more dominant epitopes are defined by being recognized by 3 or more donors/different studies)

## 2955 (RQLLFVVEV) [compound 2955]
[5]
  Dominant: Yes (more dominant epitopes are defined by being recognized by 3 or more donors/different studies)

## 1724 (DTDFVNEFY) [compound 1724]
[1]
  Dominant: Yes (more dominant epitopes are defined by being recognized by 3 or more donors/different studies)

## 610 (YIATNGPLK) [compound 610]
[2]
  Restriction: CD8

## 590 (VLNEKCSAY) [compound 590]
[2]
  Restriction: CD8

## 1358 (IAIPTNFTI) [compound 1358]
[3]
  Restriction: CD8

## 579 (KLVNKFLAL) [compound 579]
[4]
  Dominant: Yes (more dominant epitopes are defined by being recognized by 3 or more donors/different studies)
[2]
  Restriction: CD8

## 642 (ISLAGSYKDW) [compound 642]
[2]
  Restriction: CD8

## 1299 (DSKVGGNYNY) [compound 1299]
[3]
  Restriction: CD8

## 952 (FVVSTGYHFR) [compound 952]
[6]
  Restriction: CD8

## 1669 (KLLEQWNLV) [compound 1669]
[1]
  Dominant: Yes (more dominant epitopes are defined by being recognized by 3 or more donors/different studies)

## 1810 (HLVDFQVTI) [compound 1810]
[1]
  Dominant: Yes (more dominant epitopes are defined by being recognized by 3 or more donors/different studies)

## 1714 (YTMADLVYAL) [compound 1714]
[1]
  Dominant: Yes (more dominant epitopes are defined by being recognized by 3 or more donors/different studies)

## 1703 (GMSRIGMEV) [compound 1703]
[1]
  Dominant: Yes (more dominant epitopes are defined by being recognized by 3 or more donors/different studies)

## 959 (AAISDYDYY) [compound 959]
[6]
  Restriction: CD8

## 1380 (TLADAGFIK) [compound 1380]
[3]
  Restriction: CD8

## 1387 (LTDEMIAQYT) [compound 1387]
[3]
  Restriction: CD8

## 1776 (FLLNKEMYL) [compound 1776]
[1]
  Dominant: Yes (more dominant epitopes are defined by being recognized by 3 or more donors/different studies)

## 2952 (KLFDRYFKY) [compound 2952]
[5]
  Dominant: Yes (more dominant epitopes are defined by being recognized by 3 or more donors/different studies)

## 586 (QGYKSVNITF) [compound 586]
[2]
  Restriction: CD8

## 1686 (RIRGGDGKMK) [compound 1686]
[1]
  Dominant: Yes (more dominant epitopes are defined by being recognized by 3 or more donors/different studies)

## 2947 (TVLSFCAFAV) [compound 2947]
[5]
  Dominant: Yes (more dominant epitopes are defined by being recognized by 3 or more donors/different studies)

## 1460 (QYIKWPWYIW) [compound 1460]
[3]
  Restriction: CD8

## 979 (ATVVIGTSK) [compound 979]
[6]
  Restriction: CD8

## 1005 (YLPYPDPSRI) [compound 1005]
[6]
  Restriction: CD8

## 1410 (AEVQIDRLI) [compound 1410]
[3]
  Restriction: CD8

## 1813 (KLFIRQEEV) [compound 1813]
[1]
  Dominant: Yes (more dominant epitopes are defined by being recognized by 3 or more donors/different studies)

## 2944 (LPAADLDDF) [compound 2944]
[5]
  Dominant: Yes (more dominant epitopes are defined by being recognized by 3 or more donors/different studies)

## 1357 (NSIAIPTNF) [compound 1357]
[3]
  Restriction: CD8

## 3041 (VYFLQSINF) [compound 3041]
[5]
  Dominant: Yes (more dominant epitopes are defined by being recognized by 3 or more donors/different studies)

## 650 (NLKTLLSL) [compound 650]
[2]
  Restriction: CD8

## 652 (NINLHTQVV) [compound 652]
[2]
  Restriction: CD8

## 1359 (IPTNFTISV) [compound 1359]
[3]
  Restriction: CD8

## 1677 (AVILRGHLR) [compound 1677]
[1]
  Dominant: Yes (more dominant epitopes are defined by being recognized by 3 or more donors/different studies)

## 1738 (VYIGDPAQL) [compound 1738]
[1]
  Dominant: Yes (more dominant epitopes are defined by being recognized by 3 or more donors/different studies)

## 3012 (TSEDMLNPNY) [compound 3012]
[5]
  Dominant: Yes (more dominant epitopes are defined by being recognized by 3 or more donors/different studies)

## 1759 (KLVNKFLAL) [compound 1759]
[1]
  Dominant: Yes (more dominant epitopes are defined by being recognized by 3 or more donors/different studies)

## 521 (QQQQGQTVTK) [compound 521]
[4]
  Dominant: Yes (more dominant epitopes are defined by being recognized by 3 or more donors/different studies)
[2]
  Restriction: CD8

## 1073 (TTLPVNVAF) [compound 1073]
[6]
  Restriction: CD8

## 1780 (FLNGSCGSV) [compound 1780]
[1]
  Dominant: Yes (more dominant epitopes are defined by being recognized by 3 or more donors/different studies)

## 619 (KIAEIPKEEV) [compound 619]
[2]
  Restriction: CD8

## 1753 (MLWCKDGHV) [compound 1753]
[1]
  Dominant: Yes (more dominant epitopes are defined by being recognized by 3 or more donors/different studies)

## 595 (FEPSTQYEY) [compound 595]
[2]
  Restriction: CD8

## 1723 (MVMCGGSLYV) [compound 1723]
[1]
  Dominant: Yes (more dominant epitopes are defined by being recognized by 3 or more donors/different studies)

## 3022 (KLKDCVMYA) [compound 3022]
[5]
  Dominant: Yes (more dominant epitopes are defined by being recognized by 3 or more donors/different studies)
